What is called melting point is the temperature of the solid-liquid transition.

Molecules are shown by their SMILES. Counter-ions that a name gives are not always drawn.

`O=C1N(c2cc(C(F)(F)F)cc(C(F)(F)F)c2)C(=O)C2(Cc3ccc(Br)cc3)CCCN12` (stereo not drawn) had a melting point of 138 °C.

As to `CCN(CC)CCN1CCN2C(=O)N(c3cc(Cl)cc(Cl)c3)C(=O)C2(Cc2ccc(Br)cc2)C1` (stereo not drawn) (as salt: HCl) [Example 32, 4-[2-(Diethylamino)ethyl]-6-(4-bromobenzyl)-8-(3,5-dichlorophenyl)-1,4,8-triazabicyclo[4.3.0]nonane-7,9-dione], the melting point was 223 °C.

On to `CN(C)CC(=O)N1CCN2C(=O)N(c3cc(Cl)nc(Cl)c3)C(=O)C2(Cc2ccc(C#N)cc2)C1` (stereo not drawn) (as salt: HCl) [Example 166, 6-(4-Cyanobenzyl)-4-dimethylaminoacetyl-8-(2,6-dichloro-4-pyridyl)-1,4,8-triazabicyclo[4.3.0]nonane-7,9-dione], for which the melting point was 260.8 °C (dec.).

The compound `CC(C)(C)OC(=O)N1CCN2C(=O)N(c3cc(Cl)cc(Cl)c3)C(=O)C2(Cc2ccc(Br)cc2)C1` (stereo not drawn) (as salt: Na) [Example 26, 4-(tert-Butoxycarbonyl)-6-(4-bromobenzyl)-8-(3,5-dichlorophenyl)-1,4,8-triazabicyclo[4.3.0]nonane-7,9-dione] had a melting point of 79.5 °C.

In turn, `O=C1N(c2cc(Cl)nc(Cl)c2)C(=O)C2(Cc3ccc(OC(F)(F)F)cc3)C[C@H](n3cccc3)CN12` (stereo in doubt) [Example 251, (5R, 7S)-5-[4-(Trifluoromethoxy)benzyl]-3-(2,6-dichloro-4-pyridyl)-7-(1-pyrrolyl)-1,3-diazabicyclo[3.3.0]octane-2,4-dione] yielded a melting point of 129.5 °C.

The compound `O=C1N(c2cc(Cl)cc(Cl)c2)C(=O)C2(Cc3ccc(OC(F)(F)F)cc3)C[C@@H](O)CN12` (stereo in doubt) [Example 268, (5R, 7R)-5-[4-(Trifluoromethoxy)benzyl]-3-(3,5-dichlorophenyl)-7-hydroxy-1,3-diazabicyclo[3.3.0]octane-2,4-dione] gave a melting point of 50.4 °C.

In the case of `O=C1N(c2cc(Cl)cc(Cl)c2)C(=O)C2(Cc3ccc(Br)cc3)CCCN12` (stereo not drawn) [Example 1, 5-(4-Bromobenzyl)-3-(3,5-dichlorophenyl)-1,3-diazabicyclo[3.3.0]octane-2,4-dione], the melting point came out at 69.4 °C.

The compound `O=C1N(c2cc(Cl)cc(Cl)c2)C(=O)[C@]2(Cc3ccc(Br)cc3)C[C@@H](O)CN12` [Example 2, (5S, 7R)-5-(4-Bromobenzyl)-3-(3,5-dichlorophenyl)-7-hydroxy-1,3-diazabicyclo[3.3.0]octane-2,4-dione] displayed a melting point of 136.1 °C.

`[N-]=[N+]=N[C@@H]1CN2C(=O)N(c3cc(Cl)cc(Cl)c3)C(=O)[C@]2(Cc2ccc(Br)cc2)C1` [Example 3, (5S,7S)-5-(4-Bromobenzyl)-3-(3,5-dichlorophenyl)-7-azido-1,3-diazabicyclo[3.3.0]octane-2,4-dione] had a melting point of 58.9 °C.

Turning to `CC(=O)O[C@@H]1CN2C(=O)N(c3cc(Cl)cc(Cl)c3)C(=O)[C@]2(Cc2ccc(Br)cc2)C1` [Example 4, (5S,7S)-5-(4-Bromobenzyl)-3-(3,5-dichlorophenyl)-7-acetoxy-1,3-diazabicyclo[3.3.0]octane-2,4-dione], the melting point came to 149.8 °C.

Take `O=C1N(c2cc(Cl)cc(Cl)c2)C(=O)[C@]2(Cc3ccc(Br)cc3)C[C@H](O)CN12` [Example 5, (5S,7S)-5-(4-Bromobenzyl)-3-(3,5-dichlorophenyl)-7-hydroxy-1,3-diazabicyclo[3.3.0]octane-2,4-dione]: the melting point came to 88.3 °C.

In turn, `O=C1N(c2cc(Cl)cc(Cl)c2)C(=O)C2(Cc3ccc(Br)cc3)CCCCN12` (stereo not drawn) [Example 6, 6-(4-Bromobenzyl)-8-(3,5-dichlorophenyl)-1,8-diazabicyclo[4.3.0]nonane-7,9-dione] had a melting point of 128.8 °C.

The compound `O=C1N(c2cc(Cl)cc(Cl)c2)C(=O)C2(Cc3ccc(-c4cccnc4)cc3)CCCCN12` (stereo not drawn) [Example 7, 6-[4-(3-Pyridyl)benzyl]-8-(3,5-dichlorophenyl)-1,8-diazabicyclo[4.3.0]nonane-7,9-dione] came in with a melting point of 276.5 °C.

In turn, `O=C1N(c2cc(Cl)cc(Cl)c2)C(=O)C2(Cc3ccc(Br)cc3)CNCCN12` (stereo not drawn) [Example 27, 6-(4-Bromobenzyl)-8-(3,5-dichlorophenyl)-1,4,8-triazabicyclo[4.3.0]nonane-7,9-dione] gave a melting point of 92.5 °C.

For `CC(=O)N1CCN2C(=O)N(c3cc(Cl)cc(Cl)c3)C(=O)C2(Cc2ccc(Br)cc2)C1` (stereo not drawn) [Example 28, 4-Acetyl-6-(4-bromobenzyl)-8-(3,5-dichloro-phenyl)-1,4,8-triazabicyclo[4.3.0]nonane-7,9-dione], the melting point came out at 89.6 °C.

For `CN1CCN2C(=O)N(c3cc(Cl)cc(Cl)c3)C(=O)C2(Cc2ccc(Br)cc2)C1` (stereo not drawn) [Example 29, 4-Methyl-6-(4-bromobenzyl)-8-(3,5-dichloro-phenyl)-1,4,8-triazabicyclo[4.3.0]nonane-7,9-dione], the melting point came out at 221 °C.

As to `CC(C)(C)OC(=O)CN1CCN2C(=O)N(c3cc(Cl)cc(Cl)c3)C(=O)C2(Cc2ccc(Br)cc2)C1` (stereo not drawn) [Example 30, 4-(tert-Butoxycarbonylmethyl)-6-(4-bromobenzyl)-8-(3,5-dichlorophenyl)-1,4,8-triazabicyclo[4.3.0]nonane-7,9-dione], the melting point was found to be 74.7 °C.

`CN(C)CC(=O)N1CCN2C(=O)N(c3cc(Cl)cc(Cl)c3)C(=O)C2(Cc2ccc(Br)cc2)C1` (stereo not drawn) [Example 31, 4-[(Dimethylamino)acetyl]-6-(4-bromobenzyl)-8-(3,5-dichlorophenyl)-1,4,8-triazabicyclo[4.3.0]nonane-7,9-dione]: the melting point was determined as 73.5 °C.

The compound `CS(=O)(=O)N1CCN2C(=O)N(c3cc(Cl)cc(Cl)c3)C(=O)C2(Cc2ccc(Br)cc2)C1` (stereo not drawn) [Example 33, 4-Methanesulfonyl-6-(4-bromobenzyl)-8-(3,5-dichlorophenyl)-1,4,8-triazabicyclo[4.3.0]nonane-7,9-dione] displayed a melting point of 229 °C.

Regarding `O=C(O)CN1CCN2C(=O)N(c3cc(Cl)cc(Cl)c3)C(=O)C2(Cc2ccc(Br)cc2)C1` (stereo not drawn) [Example 34, 4-Carboxymethyl-6-(4-bromobenzyl)-8-(3,5-dichlorophenyl)-1,4,8-triazabicyclo[4.3.0]nonane-7,9-dione], the melting point came out at 236.5 °C.

In turn, `O=C1CN2C(=O)N(c3cc(Cl)cc(Cl)c3)C(=O)C2(Cc2ccc(Br)cc2)C1` (stereo not drawn) [Example 35, 5-(4-Bromobenzyl)-3-(3,5-dichlorophenyl)-1,3-diazabicyclo[3.3.0]octane-2,4,7-trione] displayed a melting point of 85.4 °C.

The compound `COC(=O)C=C1CN2C(=O)N(c3cc(Cl)cc(Cl)c3)C(=O)C2(Cc2ccc(Br)cc2)C1` (stereo not drawn) [Example 36, 5-(4-Bromobenzyl)-3-(3,5-dichlorophenyl)-7-methoxycarbonylmethylene-1,3-diazabicyclo[3.3.0]octane-2,4-dione] had a melting point of 74.9 °C.

Regarding `O=C(O)CC1=CC2(Cc3ccc(Br)cc3)C(=O)N(c3cc(Cl)cc(Cl)c3)C(=O)N2C1` (stereo not drawn) [Example 37, 5-(4-Bromobenzyl)-3-(3,5-dichlorophenyl)-7-carboxymethyl-1,3-diazabicyclo[3.3.0]oct-6-ene-2,4-dione], the melting point was 101.5 °C.

In turn, `N[C@@H]1CN2C(=O)N(c3cc(Cl)cc(Cl)c3)C(=O)[C@@]2(Cc2ccc(Br)cc2)C1` [Example 47, (5R,7S)-5-(4-Bromobenzyl)-3-(3,5-dichlorophenyl)-7-amino-1,3-diazabicyclo[3.3.0]octane-2,4-dione] displayed a melting point of 64.4 °C.

As for `CC(=O)N[C@@H]1CN2C(=O)N(c3cc(Cl)cc(Cl)c3)C(=O)[C@@]2(Cc2ccc(Br)cc2)C1` [Example 48, (5R,7S)-5-(4-Bromobenzyl)-3-(3,5-dichlorophenyl)-7-acetamido-1,3-diazabicyclo[3.3.0]octane-2,4-dione], the melting point stood at 140.7 °C.

As to `CN(C)[C@@H]1CN2C(=O)N(c3cc(Cl)cc(Cl)c3)C(=O)[C@@]2(Cc2ccc(Br)cc2)C1` [Example 50, (5R,7S)-5-(4-Bromobenzyl)-3-(3,5-dichlorophenyl)-7-dimethylamino-1,3-diazabicyclo[3.3.0]octane-2,4-dione], the melting point was 54 °C.

Take `N#Cc1ccc(CC23CCCN2C(=O)N(c2cc(Cl)cc(-n4cccc4)c2)C3=O)cc1` (stereo not drawn) [Example 51, 5-(4-Cyanobenzyl)-3-[3-chloro-5-(1-pyrrolyl)-phenyl]-1,3-diazabicyclo[3.3.0]octane-2,4-dione]: the melting point worked out at 266.5 °C.

Regarding `N#Cc1ccc(CC23CCCN2C(=O)N(c2cc(Cl)cc(-n4cccc4C=O)c2)C3=O)cc1` (stereo not drawn) [Example 52, 5-(4-Cyanobenzyl)-3-[3-chloro-5-(2-formyl-1-pyrrolyl)-phenyl]-1,3-diazabicyclo[3.3.0]octane-2,4-dione], the melting point amounted to 109.7 °C.

Compound `O=C1N(c2cc(Cl)nc(Cl)c2)C(=O)C2(Cc3ccc(Br)cc3)CCCN12` (stereo not drawn) [Example 55, 3-(2,6-dichloro-4-pyridyl)-5-(4-bromobenzyl)-1,3-diazabicyclo[3.3.0]octane-2,4-dione] registered a melting point of 76.3 °C.

Turning to `CC(C)(C)OC(=O)N1CCC2(Cc3ccc(C#N)cc3)C(=O)N(c3cc(Cl)nc(Cl)c3)C(=O)N12` (stereo not drawn) [Example 56, 8-(t-Butoxycarbonyl)-5-(4-cyanobenzyl)-3-(2,6-dichloro-4-pyridyl)-1,3,8-triazabicyclo[3.3.0]octane-2,4-dione], the melting point came to 179 °C.

`N#Cc1ccc(CC23CCNN2C(=O)N(c2cc(Cl)nc(Cl)c2)C3=O)cc1` (stereo not drawn) [Example 57, 5-(4-Cyanobenzyl)-3-(2,6-dichloro-4-pyridyl)-1,3,8-triazabicyclo [3.3.0]octane-2,4-dione] registered a melting point of 187 °C.

`O=C1N(c2cc(Cl)nc(Cl)c2)C(=O)[C@@]2(Cc3ccc(OC(F)(F)F)cc3)C[C@@H](O)CN12` [Example 58, (5R,7R)-5-[4-(Trifluoromethoxy)benzyl]-3-(2,6-dichloro-4-pyridyl)-7-hydroxy-1,3-diazabicyclo[3.3.0]octane-2,4-dione] returned a melting point of 52.4 °C.

Regarding `O=C1N(c2cc(Cl)nc(Cl)c2)C(=O)[C@]2(Cc3ccc(OC(F)(F)F)cc3)C[C@@H](O)CN12` [Example 59, (5S,7R)-5-[4-(Trifluoromethoxy)benzyl]-3-(2,6-dichloro-4-pyridyl)-7-hydroxy-1,3-diazabicyclo[3.3.0]octane-2,4-dione], the melting point turned out to be 162.3 °C.

(Values after patent publication US7342012B2, “Inhibitors of αLβ2 mediated cell adhesion” (Mitsubishi Tanabe Pharma Corporation, priority 1999, dated 2008).)
